# Measurements: patent US12721844B2, “Chronic kidney disease treatment or prevention method” (Japan Tobacco Inc., priority 2019, dated 2026)
# Key:
# Assay type in all cases: cell-based
# [1] = tested on: Salmonella typhimurium TA98; test: Ames test (reverse mutation test), TA98; settings: with S9 mix
# Source text: (§1) Ames Test (Reverse Mutation Test)
# (§2) Two plates per treatment were used.
# [2] = tested on: Salmonella typhimurium TA1535; test: Ames test (reverse mutation test), TA1535
# Source text: as §1, §2
# [3] = tested on: Salmonella typhimurium TA1537; test: Ames test (reverse mutation test), TA1537
# Source text: as §1, §2
# [4] = tested on: Escherichia coli WP2 uvrA; test: Ames test (reverse mutation test), WP2 uvrA; settings: for Number of revertant colonies WP2uvrA: S9 Mix −
# Source text: as §1, §2
# [5] = tested on: Salmonella typhimurium TA100; test: Ames test (reverse mutation test), TA100; settings: with S9 mix
# Source text: as §1, §2
Compound,"potential to induce reverse mutations, TA98 [1]","Number of revertant colonies TA1535 ([2]; S9 Mix +, 2.3 μg/plate)","Number of revertant colonies TA1535 ([2]; S9 Mix +, 6.9 μg/plate)","Number of revertant colonies TA1535 ([2]; S9 Mix +, 21 μg/plate)","Number of revertant colonies TA1535 ([2]; S9 Mix +, 62 μg/plate)","Number of revertant colonies TA1535 ([2]; S9 Mix +, 185 μg/plate)","Number of revertant colonies TA1535 ([2]; S9 Mix +, 556 μg/plate)","Number of revertant colonies TA1535 ([2]; S9 Mix +, 1667 μg/plate)","Number of revertant colonies TA1535 ([2]; S9 Mix +, 5000 μg/plate)","Number of revertant colonies TA1535 ([2]; S9 Mix −, 2.3 μg/plate)","Number of revertant colonies TA1535 ([2]; S9 Mix −, 6.9 μg/plate)","Number of revertant colonies TA1535 ([2]; S9 Mix −, 21 μg/plate)","Number of revertant colonies TA1535 ([2]; S9 Mix −, 62 μg/plate)","Number of revertant colonies TA1535 ([2]; S9 Mix −, 185 μg/plate)","Number of revertant colonies TA1535 ([2]; S9 Mix −, 556 μg/plate)","Number of revertant colonies TA1535 ([2]; S9 Mix −, 1667 μg/plate)","Number of revertant colonies TA1535 ([2]; S9 Mix −, 5000 μg/plate)","potential to induce reverse mutations, TA1537 ([3]; with S9 mix)",Number of revertant colonies WP2uvrA ([4]; 2.3 μg/plate),"potential to induce reverse mutations, TA100 [5]",other results
CC(C)(OCc1cc(F)cc(-c2cc(N)nn2-c2ccc(F)cc2)c1)C(F)(F)F [Metabolite D],showed potential to induce reverse mutations,10,15,14,11,9,7,7,3,20,21,11,6,9,5,6,7,showed potential to induce reverse mutations,,,
Nc1cc(-c2cccc(OCC(F)(F)F)c2)n(-c2ccc(F)cc2)n1 [Metabolite E],showed potential to induce reverse mutations,18,32,20,21,15,7,0,0,10,18,12,15,6,0,0,0,showed potential to induce reverse mutations,20,showed potential to induce reverse mutations,"potential to induce reverse mutations, TA1535 ([2]; with S9 mix): showed potential to induce reverse mutations; potential to induce reverse mutations, TA1537 ([3]; without S9 mix): showed potential to induce reverse mutations; Number of revertant colonies WP2uvrA ([4]; 6.9 μg/plate): 26; Number of revertant colonies WP2uvrA ([4]; 21 μg/plate): 24; Number of revertant colonies WP2uvrA ([4]; 62 μg/plate): 27; Number of revertant colonies WP2uvrA ([4]; 185 μg/plate): 22; Number of revertant colonies WP2uvrA ([4]; 556 μg/plate): 10; Number of revertant colonies WP2uvrA ([4]; 1667 μg/plate): 15; Number of revertant colonies WP2uvrA ([4]; 5000 μg/plate): 7"
Cc1ccc(-n2nc(N)cc2-c2cccc(OCC(F)(F)F)c2)cc1 [Metabolite F],showed potential to induce reverse mutations,22,21,20,23,13,7,0,0,17,13,19,11,3,0,0,0,showed potential to induce reverse mutations,,showed potential to induce reverse mutations,"potential to induce reverse mutations, WP2 uvrA ([4]; without S9 mix): showed potential to induce reverse mutations"
Nc1cc(-c2cccc(OC(F)(F)F)c2)n(-c2cccc(F)c2)n1 [Metabolite G],,12,14,11,8,5,5,4,4,15,16,21,9,9,0,0,0,,26,showed potential to induce reverse mutations,"potential to induce reverse mutations, TA1535 ([2]; without S9 mix): showed potential to induce reverse mutations; Number of revertant colonies WP2uvrA ([4]; 6.9 μg/plate): 23; Number of revertant colonies WP2uvrA ([4]; 21 μg/plate): 16; Number of revertant colonies WP2uvrA ([4]; 62 μg/plate): 14; Number of revertant colonies WP2uvrA ([4]; 185 μg/plate): 15; Number of revertant colonies WP2uvrA ([4]; 556 μg/plate): 10; Number of revertant colonies WP2uvrA ([4]; 1667 μg/plate): 17; Number of revertant colonies WP2uvrA ([4]; 5000 μg/plate): 6"
Cc1cccc(-n2nc(N)cc2-c2cccc(OC(F)(F)F)c2)c1 [Metabolite H],showed potential to induce reverse mutations,11,14,19,15,13,6,3,3,12,17,18,14,14,6,6,4,showed potential to induce reverse mutations,,showed potential to induce reverse mutations,
